For six molecules, MIC results are on record in ChEMBL document CHEMBL3046556, “Microwave-assisted synthesis and antimicrobial screening of new imidazole derivatives bearing 4-thiazolidinone nucleus” (2013).

Type in all cases: functional
One experiment has as its system Candida albicans. As to the kind of experiment: Antifungal activity against Candida albicans MTCC 227 assessed as growth inhibition after 48 hr by broth dilution method. The note with it: MTCC 227, 48 h.
The next experiment deals with Streptococcus pyogenes. Kind of experiment: Antibacterial activity against Streptococcus pyogenes MTCC 442 assessed as growth inhibition after 24 hr by NCCLS broth dilution method. The note with it: MTCC 442, 24 h. For orientation: Broth dilution looks for growth in wells or tubes with falling amounts of substance.
The next experiment has as its system Aspergillus clavatus. Kind of experiment: Antifungal activity against Aspergillus clavatus MTCC 1323 assessed as growth inhibition after 48 hr by broth dilution method. The note with it: MTCC 1323, 48 h.
Another experiment has as its system Escherichia coli. As to the kind of experiment: Antibacterial activity against Escherichia coli MTCC 443 assessed as growth inhibition after 24 hr by NCCLS broth dilution method. The note with it: MTCC 443, 24 h.
In another experiment the test system is Pseudomonas aeruginosa. Kind of experiment: Antibacterial activity against Pseudomonas aeruginosa MTCC 1688 assessed as growth inhibition after 24 hr by NCCLS broth dilution method. The note with it: MTCC 1688, 24 h.
The subject of a further experiment is Aspergillus niger. Kind of experiment: Antifungal activity against Aspergillus niger MTCC 282 assessed as growth inhibition after 48 hr by broth dilution method. The note with it: MTCC 282, 48 h.
A further experiment relates to Staphylococcus aureus. As to the kind of experiment: Antibacterial activity against Staphylococcus aureus MTCC 96 assessed as growth inhibition after 24 hr by NCCLS broth dilution method. The note with it: MTCC 96, 24 h.

SMILES strings stand for the structures. Values after ≈ are worked out from the molar mass of the structure shown.

With `CC1=N/C(=C\c2ccccc2O)C(=O)N1c1ccc(/C(C)=N/N=C2/NC(=O)CS2)cc1`, the minimum inhibitory concentration (MIC) (in general, the smallest concentration in the dilution series that meets the test's criterion for growth inhibition) in the experiment on Candida albicans was 100 mg/L (≈ 231 µM); in the experiment on Streptococcus pyogenes, 100 mg/L (≈ 231 µM); with Aspergillus clavatus, 100 mg/L (≈ 231 µM); in the experiment on Escherichia coli, 100 mg/L (≈ 231 µM); in the experiment with Pseudomonas aeruginosa, 25 mg/L (≈ 57.7 µM); with Aspergillus niger it was 50 mg/L (≈ 115 µM). Further, the MIC with Staphylococcus aureus amounted to 250 mg/L (≈ 577 µM).
Consider `CC1=N/C(=C\c2ccccc2C)C(=O)N1c1ccc(/C(C)=N/N=C2/NC(=O)CS2)cc1`, for which the MIC with Candida albicans was determined as 500 mg/L (≈ 1160 µM); with Streptococcus pyogenes it was 25 mg/L (≈ 57.9 µM); with Aspergillus clavatus, 250 mg/L (≈ 579 µM); with Escherichia coli, 250 mg/L (≈ 579 µM); in the experiment with Pseudomonas aeruginosa it was 250 mg/L (≈ 579 µM); in the experiment with Aspergillus niger, 100 mg/L (≈ 232 µM). Moreover, the MIC with Staphylococcus aureus is 25 mg/L (≈ 57.9 µM).
For the molecule `COc1ccc(/C=C2\N=C(C)N(c3ccc(/C(C)=N/N=C4/NC(=O)CS4)cc3)C2=O)cc1`, the MIC came to 500 mg/L (≈ 1120 µM) in the experiment with Candida albicans; 50 mg/L (≈ 112 µM) in the experiment on Streptococcus pyogenes; 250 mg/L (≈ 559 µM) in the experiment with Aspergillus clavatus; 250 mg/L (≈ 559 µM) in the experiment with Escherichia coli; 100 mg/L (≈ 223 µM) in the experiment with Pseudomonas aeruginosa; 250 mg/L (≈ 559 µM) with Aspergillus niger. Moreover, in the experiment with Staphylococcus aureus, the MIC amounted to 500 mg/L (≈ 1120 µM).
For the molecule `CC1=N/C(=C\c2ccc(F)cc2)C(=O)N1c1ccc(/C(C)=N/N=C2/NC(=O)CS2)cc1`, the MIC in the experiment with Candida albicans was 500 mg/L (≈ 1150 µM); with Streptococcus pyogenes, 500 mg/L (≈ 1150 µM); in the experiment on Aspergillus clavatus, 500 mg/L (≈ 1150 µM); in the experiment with Escherichia coli it was 250 mg/L (≈ 574 µM); with Pseudomonas aeruginosa, 250 mg/L (≈ 574 µM); with Aspergillus niger, 500 mg/L (≈ 1150 µM). In addition, in the experiment on Staphylococcus aureus, the minimal inhibitory concentration (MIC) turned out to be 100 mg/L (≈ 230 µM).
In the case of `CC1=N/C(=C\c2ccccc2Cl)C(=O)N1c1ccc(/C(C)=N/N=C2/NC(=O)CS2)cc1`, the MIC in the experiment on Candida albicans amounted to 1000 mg/L (≈ 2210 µM); in the experiment on Streptococcus pyogenes, 250 mg/L (≈ 553 µM); in the experiment on Aspergillus clavatus, 1000 mg/L (≈ 2210 µM); with Escherichia coli, 500 mg/L (≈ 1110 µM); in the experiment on Pseudomonas aeruginosa it was 100 mg/L (≈ 221 µM); with Aspergillus niger, 1000 mg/L (≈ 2210 µM). In the experiment with Staphylococcus aureus, the MIC was 500 mg/L (≈ 1110 µM).
With `CC1=N/C(=C\c2cccc(C)c2)C(=O)N1c1ccc(/C(C)=N/N=C2/NC(=O)CS2)cc1`, the MIC in the experiment on Candida albicans worked out at 500 mg/L (≈ 1160 µM); in the experiment on Streptococcus pyogenes, 100 mg/L (≈ 232 µM); in the experiment on Aspergillus clavatus, 100 mg/L (≈ 232 µM); in the experiment on Escherichia coli, 500 mg/L (≈ 1160 µM); in the experiment on Pseudomonas aeruginosa, 250 mg/L (≈ 579 µM); in the experiment on Aspergillus niger it was 250 mg/L (≈ 579 µM). Also, in the experiment with Staphylococcus aureus, the MIC is 100 mg/L (≈ 232 µM).
